Reference: US6410249B1, “Odorant receptors” (priority 1999, dated 2002)
Like-named read-outs stand apart in the source and are kept apart here.

Tests used:
receptor 5.24 = biological target: T1, receptor 5.24 (Carassius auratus, UniProt Q9PW88); test: 3H-L-arginine saturation binding to membranes of receptor 5.24-expressing HEK 293 cells; set-up: species or system goldfish
T1 construct: The receptor 5.24 full length cDNA detects 1-2 bands in genomic DNA blots; expressed in transfected cells; host or cells: HEK 293 cells expressing SV40 large T antigen (293-TSA)
T1 sequence (Q9PW88 25-877): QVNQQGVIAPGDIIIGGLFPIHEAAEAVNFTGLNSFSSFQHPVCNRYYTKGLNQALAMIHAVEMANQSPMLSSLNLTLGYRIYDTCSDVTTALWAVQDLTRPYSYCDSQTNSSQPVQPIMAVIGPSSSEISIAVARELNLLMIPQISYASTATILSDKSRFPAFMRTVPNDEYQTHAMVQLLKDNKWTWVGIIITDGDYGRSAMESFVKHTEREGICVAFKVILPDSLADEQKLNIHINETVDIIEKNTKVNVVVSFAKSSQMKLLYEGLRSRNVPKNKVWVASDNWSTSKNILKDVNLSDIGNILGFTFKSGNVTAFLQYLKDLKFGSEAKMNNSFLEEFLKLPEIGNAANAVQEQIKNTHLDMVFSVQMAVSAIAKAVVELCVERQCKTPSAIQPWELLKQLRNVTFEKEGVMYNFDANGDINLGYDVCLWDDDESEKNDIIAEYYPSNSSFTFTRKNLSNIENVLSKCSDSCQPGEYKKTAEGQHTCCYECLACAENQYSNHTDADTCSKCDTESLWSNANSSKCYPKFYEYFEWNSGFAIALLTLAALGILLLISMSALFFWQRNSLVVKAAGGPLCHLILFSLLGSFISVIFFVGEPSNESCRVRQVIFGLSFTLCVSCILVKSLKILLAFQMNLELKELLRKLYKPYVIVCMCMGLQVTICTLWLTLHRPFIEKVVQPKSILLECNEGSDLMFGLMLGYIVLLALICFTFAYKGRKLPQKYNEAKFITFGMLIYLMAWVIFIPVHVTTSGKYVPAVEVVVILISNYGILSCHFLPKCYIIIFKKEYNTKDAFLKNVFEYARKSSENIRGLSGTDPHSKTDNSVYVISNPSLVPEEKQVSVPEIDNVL
Source text: High-Affinity Binding of Radiolabeled L-Arginine to the Cloned Goldfish Odorant Receptor. To determine the affinity of the cloned goldfish amino acid receptor for basic amino acids, we characterized the ligand-receptor interaction by radiolabeled ligand binding to receptors expressed in mammalian cells. Human embryonic kidney (HEK) 293 cells were transfected with expression plasmids containing the receptor 5.24 cDNA insert. […] We next wished to determine what second messenger pathway receptor 5.24 couples to in HEK 293 cells. Control cells or cells expressing receptor 5.24 were exposed to varying concentrations of arginine and assayed for the accumulation of IP3 and cAMP.
Mammalian Cell Culture and DNA Transfections. For cell transfections, the receptor 5.24 cDNA insert was subcloned into two expression vectors: CMVI, which utilizes a human cytomegalovirus (CMV) immediate early promoter-enhancer plus the CMV intron A sequence to drive expression, and 608RX-2.2L, which is similar to CMVI except the cDNA insert is followed by an internal ribosome entry site (IRES)—enhanced green fluorescent protein (EGFP) coding sequence; 608RX-2.2L also contains a puromycin resistance gene. For transient assays, HEK 293 cells expressing the SV40 large T antigen (293 TSA cells) were transfected with the CMVI-receptor 5.24 or CMVI control plasmid using lipofectamine (Life Technologies) and harvested at 48 hours for membrane preparations. For stable cell lines, 293-TSA cells were transfected with the 608RX-2.2L-receptor 5.24 plasmid or a control 608RX-2.2L plasmid and selected in puromycin. Colonies showing high levels of EGFP fluorescence (as judged by epifluorescence microscopy) were picked, expanded, and screened for 3H-L-arginine binding (see below). In five independent receptor 5.24-transfected stable cell lines, receptor densities (Rt) varied between 0.5 and 6.0 pmol L-arginine binding sites/mg membrane protein. […] All competition binding assays and signal transduction studies were performed using the stable cell line 5.24-20 (Rt=2.0 pmol /mg) and a control cell line (2.2-9) stably transfected with vector alone (Rt=0.03 pmol/mg).
Membrane Preparations and Ligand Binding Assays. Membranes for ligand binding assays were prepared by washing confluent cells three times with phosphate buffered saline (PBS), detaching cells with a PBS-based enzyme-free dissociation solution, and resuspending cells in ice-cold 5.0 mM Hepes, pH 7.4, 1.0 mM EDTA, 1.0 μg/ml leupeptin, 0.5 mM PMSF. All subsequent manipulations were performed on ice. After a 30 min incubation, the cell suspension was homogenized and centrifuged at 100,000×g for 30 min. Cell membrane pellets were washed twice by resuspension and centrifugation in binding buffer (20 mM Hepes, pH 7.4, 1.0 mM EDTA, 2.0 mM MgCl2, 1.0 μg/ml leupeptin, 0.5 mM PMSF), resuspended in binding buffer, and frozen at −80° C.
Saturation binding assays were performed using 20-25 μg of membrane protein in a final volume of 100 μl binding buffer and increasing concentrations of [2,3-3H] L-arginine (specific activity=40 Ci/mmol; Dupont NEN). Non-specific binding was measured in the presence of 500 μM unlabeled L-arginine. Competition assays were performed with 500 nM [2,3-3H] […] Filters were washed three times with 4.0 ml ice cold 20 mM Hepes, pH 7.4, and retained radioactivity was measured by scintillation counting. […] Data were analyzed by nonlinear curve fitting using Origin software (Microcal). […]

[1] = test system: catfish olfactory neurons; details: 100 μM, catfish olfactory epithelium; cited from earlier work

N=C(N)NCCC[C@H](N)C(=O)O [L-Arginine]
Kd (receptor 5.24; mean±SEM, n=4, read-out: dissociation constant (Kd)): 121 ± 33 nM | Hill coefficient (receptor 5.24; mean±SEM, n=4 determinations): 0.95±0.07 | Kd (receptor 5.24; range of n=4 determinations, read-out: dissociation constant (Kd), range): 52 to 207 nM | Kd (receptor 5.24; summary statement, read-out: Kd (high affinity interaction)): ~100 nM | fraction of olfactory neurons responding [1]: ~40%
